The results in this text go back to patent US20110151258A1, “PREPARATION OF RANOLAZINE” (DR. REDDY'S LABORATORIES LTD., priority 2008, published 2011).

SMILES strings stand for the structures.

Common to all, as to assay type: physicochemical
A short description of data set [1]: Specific surface area and span by light scattering (Malvern method). The settings on record: for Specific surface area: method not stated at the place; for span: particle size distribution span. The source says: (§1) In an embodiment, the present application provides a pharmaceutical composition comprising ranolazine having a specific surface area more than about 0.1 m^2/g, or more than about 0.5 m^2/g, or more than about 1 m^2/g, or more than about 2 m^2/g, or more than about 3 m^2/g, or more than about 5 m^2/g. “Specific surface area” as used herein, unless otherwise defined refers to the total particle surface […]. The specific surface area of ranolazine of the present invention may be measured by a BET (Brunauer, Emmett and Teller) specific surface method, such as using a Micromeritics Gemini surface area analyzer, model 2365. Samples for analysis are degassed at 40° C. under reduced pressure and the determination of the adsorption of nitrogen gas at 77° K may be measured for relative pressures in the range of 0.05-0.3. Specific surface area and span of ranolazine of the present application may be measured by using light scattering equipment, such as, for example, a Malvern Master Sizer 2000 (helium neon laser source, ranolazine suspended in light liquid paraffin, size range: 0.01 μm to 3000 μm).

Data set [2] can be described thus: Particle size distribution by light scattering (Malvern Master Sizer 2000). The settings on record: for Particle size distribution: D10: 10th volume percentile particle size; for Particle size distribution: D50: 50th volume percentile particle size; for Particle size distribution: D90: 90th volume percentile particle size. From the text: Particle size distributions of ranolazine particles may be measured by any technique known in the art. For example, particle size distributions of ranolazine particles may be measured using light scattering equipment, such as, for example, a Malvern Master Sizer 2000 from Malvern Instruments Limited, Malvern, Worcestershire, United Kingdom (helium neon laser source, ranolazine suspended in light liquid paraffin, size range: 0.01 μm to 3000 μm).

Data set [3] in a line: Specific surface area by BET method.
From the text: as §1

Data set [4] can be described thus: Bulk density (USP Test 616, method 2). The source says: In an embodiment, the present application provides ranolazine having bulk densities less than about 0.8 g/mL, or less than about 0.5 g/mL, or less than about 0.3 g/mL. Bulk density may be determined using Test 616 “Bulk Density and Tapped Density,” as in United States Pharmacopoeia 29, United States Pharmacopeial Convention, Inc., Rockville, Md., 2005, in method 2.

For `COc1ccccc1OCC(O)CN1CCN(CC(=O)Nc2c(C)cccc2C)CC1` (stereo not shown) [Example 14, Ranolazine], in data set [1], the Specific surface area stood at 0.539 m^2/g and the span is 1.833. For the same compound, in data set [2], the “Particle size distribution: D10” value is reported as 6.311 μm, the “Particle size distribution: D50” value is 22.490 μm and the “Particle size distribution: D90” value was determined as 47.539 μm.

In data set [1], `COc1ccccc1OCC(O)CN1CCN(CC(=O)Nc2c(C)cccc2C)CC1` (stereo not shown) [Example 15, Ranolazine] gave a Specific surface area of 0.655 m^2/g and a span of 2.813. Besides, in data set [2], the “Particle size distribution: D10” value came to 5.272 μm, the “Particle size distribution: D50” value was 18.656 μm and the “Particle size distribution: D90” value was found to be 57.748 μm.

Regarding `COc1ccccc1OCC(O)CN1CCN(CC(=O)Nc2c(C)cccc2C)CC1` (stereo not shown) [Example 16, Ranolazine], the “specific surface area by BET method” value in data set [3] was 0.46 m^2/g. Besides, in data set [1], the “Specific surface area by Malvern method” value came out at 1.63 m^2/g and the span was found to be 1.817. In data set [2], the “Particle size distribution: D10” value worked out at 5.026 μm, the “Particle size distribution: D50” value was 18.770 μm and the “Particle size distribution: D90” value was 39.137 μm.

In the case of `COc1ccccc1OCC(O)CN1CCN(CC(=O)Nc2c(C)cccc2C)CC1` (stereo not shown) [Example 17, Ranolazine], the “specific surface area by BET method” value in data set [3] is on record as 2.54 m^2/g. In addition, in data set [1], the “Specific surface area by Malvern method” value was found to be 1.99 m^2/g and the span is 1.905. In addition, in data set [2], the “Particle size distribution: D10” value stood at 1.324 μm, the “Particle size distribution: D50” value was found to be 5.140 μm and the “Particle size distribution: D90” value amounted to 11.116 μm.

Take `COc1ccccc1OCC(O)CN1CCN(CC(=O)Nc2c(C)cccc2C)CC1` (stereo not shown) [Example 18, Ranolazine]: the “bulk density after tapping” value in data set [4] (after tapping) was determined as 0.477 g/mL. Besides, in data set [4] (before tapping), the “bulk density before tapping” value is 0.353 g/mL. In data set [1], this compound had a Specific surface area of 0.705 m^2/g and a span of 1.611. Besides, in data set [2], the “Particle size distribution: D10” value was determined as 4.420 μm, the “Particle size distribution: D50” value was determined as 16.147 μm and the “Particle size distribution: D90” value came to 30.439 μm.

In data set [1], `COc1ccccc1OCC(O)CN1CCN(CC(=O)Nc2c(C)cccc2C)CC1` (stereo not shown) [Example 19, Ranolazine] had a Specific surface area of 0.291 m^2/g and a span of 1.823. Besides, in data set [2], the “Particle size distribution: D10” value is listed as 13.262 μm, the “Particle size distribution: D50” value is listed as 41.574 μm and the “Particle size distribution: D90” value turned out to be 89.060 μm.
